± gives the expanded uncertainty stated by the source.
Tests used:
[1] = 101.33 kPa, Liquid; for viscosity: Cone and plate viscometry; for mass density: Vibrating tube method; for electrical conductivity: conductivity meter (DDJS-308A)
[2] = refractive index (Na D-line) (dimensionless); conditions: 101.33 kPa, Liquid, Standard Abbe refractometry

C[C@H](N)C(=O)[O-].C[N+](C)(C)CCO [2-hydroxy-N,N,N-trimethylethanaminium L-alaninate]
Conditions | electrical conductivity, [1] [S/m] | mass density, [1] [kg/m3] | refractive index, [2] | viscosity, [1] [mPa·s]
293.15 K | – | – | 1.5146 ± 0.0011 | –
298.15 K | 0.00213 ± 7e-05 | 1112.94 ± 2 | 1.514 ± 0.0011 | 385.6 ± 45
303.15 K | 0.00577 ± 0.00018 | 1110.07 ± 2 | 1.5127 ± 0.0011 | 234.9 ± 27
308.15 K | 0.00907 ± 0.00027 | 1107.01 ± 2 | 1.5118 ± 0.0011 | 136.8 ± 15
313.15 K | 0.0126 ± 0.00038 | 1104.04 ± 2 | 1.5105 ± 0.0011 | 89 ± 9.9
318.15 K | 0.017 ± 0.00051 | 1101.21 ± 2 | 1.5094 ± 0.0011 | 51.8 ± 5.7
323.15 K | 0.0249 ± 0.00075 | 1098.37 ± 2 | 1.5084 ± 0.0011 | 31.5 ± 3.5
328.15 K | 0.0309 ± 0.00093 | 1095.54 ± 2 | 1.5072 ± 0.0011 | 21.5 ± 2.4
333.15 K | 0.0397 ± 0.0012 | 1092.69 ± 2 | 1.506 ± 0.0011 | 14 ± 1.5
338.15 K | 0.0518 ± 0.0016 | 1089.85 ± 2 | 1.5052 ± 0.0011 | 10 ± 1.1
343.15 K | 0.0655 ± 0.002 | 1087.04 ± 2 | 1.5041 ± 0.0011 | 7.4 ± 0.8
348.15 K | 0.0822 ± 0.0025 | 1084.27 ± 2 | – | 5.7 ± 0.6
353.15 K | 0.101 ± 0.003 | 1081.51 ± 2 | – | 4.4 ± 0.5

C[N+](C)(C)CCO.O=C([O-])[C@@H]1CCCN1 [2-hydroxy-N,N,N-trimethylethanaminium L-prolinate]
Conditions | electrical conductivity, [1] [S/m] | mass density, [1] [kg/m3] | refractive index, [2] | viscosity, [1] [mPa·s]
293.15 K | – | – | 1.5419 ± 0.0011 | –
298.15 K | 3e-05 ± 1e-05 | 1121.04 ± 2 | 1.5408 ± 0.0011 | 10644 ± 1600
303.15 K | 0.00013 ± 1e-05 | 1118.21 ± 2 | 1.5402 ± 0.0011 | 5437.3 ± 770
308.15 K | 0.00035 ± 1e-05 | 1115.35 ± 2 | 1.539 ± 0.0011 | 2824.6 ± 380
313.15 K | 0.0007 ± 2e-05 | 1112.49 ± 2 | 1.5379 ± 0.0011 | 1515.3 ± 190
318.15 K | 0.0013 ± 4e-05 | 1109.61 ± 2 | 1.5367 ± 0.0011 | 839.1 ± 100
323.15 K | 0.00204 ± 6e-05 | 1106.69 ± 2 | 1.5355 ± 0.0011 | 463.5 ± 55
328.15 K | 0.00291 ± 9e-05 | – | 1.5344 ± 0.0011 | 307 ± 36
333.15 K | 0.00435 ± 0.00013 | 1100.61 ± 2 | 1.5329 ± 0.0011 | 163.7 ± 18
338.15 K | 0.00552 ± 0.00017 | 1097.81 ± 2 | 1.5317 ± 0.0011 | 114 ± 13
343.15 K | 0.00649 ± 0.00019 | 1095.03 ± 2 | 1.5306 ± 0.0011 | 70.1 ± 7.8
348.15 K | 0.00779 ± 0.00023 | 1092.12 ± 2 | – | 46.3 ± 5.1
353.15 K | 0.00941 ± 0.00028 | 1089.39 ± 2 | – | 33.7 ± 3.7

C[N+](C)(C)CCO.N[C@@H](CO)C(=O)[O-] [2-hydroxy-N,N,N-trimethylethanaminium L-serinate]
Conditions | electrical conductivity, [1] [S/m] | mass density, [1] [kg/m3] | refractive index, [2] | viscosity, [1] [mPa·s]
293.15 K | – | – | 1.5447 ± 0.0011 | –
298.15 K | 0.00093 ± 3e-05 | 1191.51 ± 2 | 1.5429 ± 0.0011 | 11544 ± 1700
303.15 K | 0.00145 ± 4e-05 | 1188.65 ± 2 | 1.5416 ± 0.0011 | 6543.1 ± 930
308.15 K | 0.00229 ± 7e-05 | 1185.79 ± 2 | 1.5408 ± 0.0011 | 3793.3 ± 520
313.15 K | 0.00359 ± 0.00011 | 1182.9 ± 2 | 1.5397 ± 0.0011 | 2186.5 ± 290
318.15 K | 0.00553 ± 0.00017 | 1179.92 ± 2 | 1.5388 ± 0.0011 | 1306 ± 160
323.15 K | 0.00833 ± 0.00025 | 1176.87 ± 2 | 1.5382 ± 0.0011 | 811.5 ± 99
328.15 K | 0.0122 ± 0.00037 | 1173.97 ± 2 | 1.5366 ± 0.0011 | 522.9 ± 62
333.15 K | 0.0175 ± 0.00053 | 1171.2 ± 2 | 1.5349 ± 0.0011 | 346.6 ± 40
338.15 K | 0.0266 ± 0.0008 | 1168.38 ± 2 | 1.5341 ± 0.0011 | 237.7 ± 27
343.15 K | 0.037 ± 0.0011 | 1165.5 ± 2 | 1.5326 ± 0.0011 | 167.5 ± 19
348.15 K | 0.0495 ± 0.0015 | 1162.54 ± 2 | – | 120.1 ± 13
353.15 K | 0.0688 ± 0.0021 | 1159.37 ± 2 | – | 90.2 ± 10

C[N+](C)(C)CCO.NCC(=O)[O-] [2-hydroxy-N,N,N-trimethylethanaminium glycinate]
Conditions | electrical conductivity, [1] [S/m] | mass density, [1] [kg/m3] | refractive index, [2] | viscosity, [1] [mPa·s]
293.15 K | – | – | 1.5238 ± 0.0011 | –
298.15 K | 0.00677 ± 0.00021 | 1145.2 ± 2 | 1.5224 ± 0.0011 | 182.3 ± 21
303.15 K | 0.0104 ± 0.00031 | 1142.31 ± 2 | 1.5213 ± 0.0011 | 119.9 ± 13
308.15 K | 0.0147 ± 0.00044 | 1139.43 ± 2 | 1.5204 ± 0.0011 | 84.3 ± 9.3
313.15 K | 0.022 ± 0.00066 | 1136.7 ± 2 | 1.5194 ± 0.0011 | 50.2 ± 5.6
318.15 K | 0.0292 ± 0.00088 | 1133.97 ± 2 | 1.5182 ± 0.0011 | 29.4 ± 3.3
323.15 K | 0.0388 ± 0.0012 | 1131.22 ± 2 | 1.5171 ± 0.0011 | 19.9 ± 2.2
328.15 K | 0.0497 ± 0.0015 | 1128.46 ± 2 | 1.5158 ± 0.0011 | 14.3 ± 1.6
333.15 K | 0.0609 ± 0.0018 | 1125.7 ± 2 | 1.5148 ± 0.0011 | 10.4 ± 1.1
338.15 K | 0.0781 ± 0.0024 | 1122.93 ± 2 | 1.5137 ± 0.0011 | 7.2 ± 0.8
343.15 K | 0.0993 ± 0.003 | 1120.22 ± 2 | 1.5125 ± 0.0011 | 5.5 ± 0.6
348.15 K | 0.122 ± 0.0037 | 1117.53 ± 2 | – | 4.3 ± 0.5
353.15 K | 0.15 ± 0.0045 | 1114.83 ± 2 | – | 3.5 ± 0.4

C[N+](C)(C)CCO.NCCC(=O)[O-] [2-hydroxy-N,N,N-trimethylethanaminium β-alaninate]
Conditions | electrical conductivity, [1] [S/m] | mass density, [1] [kg/m3] | refractive index, [2] | viscosity, [1] [mPa·s]
293.15 K | – | – | 1.5322 ± 0.0011 | –
298.15 K | 0.00071 ± 2e-05 | 1120.29 ± 2 | 1.5313 ± 0.0011 | 5092.1 ± 710
303.15 K | 0.00143 ± 4e-05 | 1117.51 ± 2 | 1.5306 ± 0.0011 | 3022.2 ± 400
308.15 K | 0.00268 ± 8e-05 | 1114.55 ± 2 | 1.5294 ± 0.0011 | 1820.4 ± 230
313.15 K | 0.00494 ± 0.00015 | 1111.77 ± 2 | 1.5285 ± 0.0011 | 1146.2 ± 140
318.15 K | 0.00907 ± 0.00027 | 1108.98 ± 2 | 1.5277 ± 0.0011 | 723.2 ± 88
323.15 K | 0.0134 ± 0.0004 | 1106.2 ± 2 | 1.5266 ± 0.0011 | 470.7 ± 56
328.15 K | 0.0178 ± 0.00053 | 1103.43 ± 2 | 1.526 ± 0.0011 | 322.4 ± 37
333.15 K | 0.0227 ± 0.00068 | 1100.63 ± 2 | 1.5249 ± 0.0011 | 220.7 ± 25
338.15 K | 0.0295 ± 0.00089 | 1097.83 ± 2 | 1.5238 ± 0.0011 | 155.9 ± 18
343.15 K | 0.0379 ± 0.0011 | 1095.04 ± 2 | 1.5225 ± 0.0011 | 112 ± 12
348.15 K | 0.0496 ± 0.0015 | 1092.32 ± 2 | – | 79.3 ± 8.8
353.15 K | 0.0615 ± 0.0019 | 1089.6 ± 2 | – | 56.7 ± 6.3
